Measured values as given in publication PMC6467700 (Journal of medicinal chemistry, 2019).
Like-named read-outs stand apart in the source and are kept apart here.

Assays:
MOR [1] = conditions: peripherally selective MOR antagonist; cited from earlier work
MOR [2] = target: T1, MOR (Mus musculus, UniProt P42866); conditions: cited from earlier work
MOR [3] = target: T1, MOR; experiment: Competition radioligand binding at the MOR; conditions: [3H]naloxone, CHO cells expressing mouse MOR
KOR [4] = target: T2, KOR (Mus musculus, UniProt P33534); conditions: ref 57a, cited from earlier work
MOR [5] = target: T1, MOR; conditions: read-out: Ki (nM) MOR; ref 57a; cited from earlier work
DOR = DOR (Mus musculus, UniProt P32300); conditions: ref 57a, cited from earlier work
KOR [6] = target: T2, KOR; conditions: read-out: Ki,κ; 50a; cited from earlier work

T1 sequence (P42866 whole entry): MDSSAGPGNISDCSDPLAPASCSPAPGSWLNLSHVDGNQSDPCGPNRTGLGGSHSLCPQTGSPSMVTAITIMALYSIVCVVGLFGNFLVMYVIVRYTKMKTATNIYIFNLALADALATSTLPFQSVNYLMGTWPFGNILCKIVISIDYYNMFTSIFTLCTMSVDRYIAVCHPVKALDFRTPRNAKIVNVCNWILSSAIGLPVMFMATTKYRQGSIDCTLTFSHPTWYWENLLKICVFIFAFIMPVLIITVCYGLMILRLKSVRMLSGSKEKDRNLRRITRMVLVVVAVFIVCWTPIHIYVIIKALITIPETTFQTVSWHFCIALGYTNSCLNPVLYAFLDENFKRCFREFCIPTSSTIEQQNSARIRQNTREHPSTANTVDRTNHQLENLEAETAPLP
T2 sequence (P33534 whole entry): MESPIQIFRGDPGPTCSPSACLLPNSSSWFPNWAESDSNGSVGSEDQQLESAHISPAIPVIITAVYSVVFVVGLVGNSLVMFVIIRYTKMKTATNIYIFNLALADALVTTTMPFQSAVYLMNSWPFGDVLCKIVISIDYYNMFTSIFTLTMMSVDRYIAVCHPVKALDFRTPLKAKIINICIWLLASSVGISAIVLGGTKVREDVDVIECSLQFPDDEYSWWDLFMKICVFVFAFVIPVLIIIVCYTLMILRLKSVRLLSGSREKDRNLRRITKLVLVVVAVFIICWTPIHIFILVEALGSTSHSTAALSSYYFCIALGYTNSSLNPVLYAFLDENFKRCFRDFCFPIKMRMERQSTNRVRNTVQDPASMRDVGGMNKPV
Sequence of DOR (P32300 whole entry): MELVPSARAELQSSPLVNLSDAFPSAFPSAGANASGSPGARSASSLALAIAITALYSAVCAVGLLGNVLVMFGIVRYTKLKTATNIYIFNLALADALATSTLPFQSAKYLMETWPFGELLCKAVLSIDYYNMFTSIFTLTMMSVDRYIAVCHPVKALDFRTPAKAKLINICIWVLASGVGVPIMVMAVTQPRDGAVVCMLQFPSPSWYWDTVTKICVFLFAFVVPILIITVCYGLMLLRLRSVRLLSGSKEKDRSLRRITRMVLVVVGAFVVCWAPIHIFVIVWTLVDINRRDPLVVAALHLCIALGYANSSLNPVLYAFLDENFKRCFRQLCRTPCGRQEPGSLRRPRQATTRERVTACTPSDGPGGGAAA

Question: Which results are given for `O=C(N[C@@H]1CC[C@@]2(O)[C@H]3Cc4ccc(O)c5c4[C@@]2(CCN3CC2CC2)[C@H]1O5)c1ccncc1` [NAP, 17-cyclopropylmethyl-3,14β-dihydroxy-4,5α-epoxy-6β-(4′-pyridylcarboxamido)-morphinan]?
Answer: ED50 (MOR [1]): 8.8 µg/kg; MOR [35S]GTPγS Binding % Emax of DAMGO (MOR [2]; ref 44a): 22.72 ± 0.84%

Question: Which “Ki (nM) MOR” value (MOR [3]) does the source give for `COC(=O)c1cnccc1C(=O)N[C@@H]1CC[C@@]2(O)[C@H]3Cc4ccc(O)c5c4[C@@]2(CCN3CC2CC2)[C@H]1O5` [Compound 6, 17-Cyclopropylmethyl-3,14β-dihydroxy-4,5α-epoxy-6β-[(3′-methylformate-4′-pyridyl)acetamido]morphinan] here?
Answer: nanomolar binding affinity

Question: Which Ki (KOR [4]; read-out: Ki (nM) KOR) does the source give for `Cc1cnccc1C(=O)N[C@@H]1CC[C@@]2(O)[C@H]3Cc4ccc(O)c5c4[C@@]2(CCN3CC2CC2)[C@H]1O5` [NMP, 17-cyclopropylmethyl-3,14β-dihydroxy-4,5α-epoxy-6β-{[4′-(3′-methylpyridyl)]carboxamido}morphinan] here?
Answer: 96.7 ± 12.2 nM

Question: And the “Selectivity κ/μ” value (KOR [4])?
Answer: 166

Question: What about the Ki (MOR [5]) of the same compound?
Answer: 0.58 ± 0.25 nM

Question: And the EC50 (MOR [2]; read-out: MOR [35S]GTPγS Binding EC50, ref 57a)?
Answer: 1.52 ± 0.26 nM

Question: And the “MOR [35S]GTPγS Binding % Emax of DAMGO” value (MOR [2]; ref 57a)?
Answer: 30.63 ± 0.55%

Question: And the Ki (DOR; read-out: Ki (nM) DOR)?
Answer: 273.6 ± 1.8 nM

Question: What about the “Selectivity δ/μ” value (DOR) of the same compound?
Answer: 470

Question: Which Ki (KOR [6]) does the source give for `Oc1ccc2c3c1O[C@H]1c4[nH]c5c(c4C[C@@]4(O)[C@@H](C2)N(CC2CC2)CC[C@]314)C[C@@]1(O)[C@H]2Cc3ccc(O)c4c3[C@@]1(CCN2CC1CC1)[C@H]5O4` [norBNI] here?
Answer: 1.8 nM
